Assay results published in US9040903B2, “Precursor selection using an artificial intelligence algorithm increases proteomic sample coverage and reproducibility” (Wisconsin Alumni Research Foundation, priority 2011, dated 2015).

B1: bone morphogenetic protein 4 (protein, UniProt P12644 293-408, looked up)
Bone morphogenetic protein 4: SPKHHSQRARKKNKNCRRHSLYVDFSDVGWNDWIVAPPGYQAFYCHGDCPFPLADHLNSTNHAIVQTLVNSVNSSIPKACCVPTELSAISMLYLDEYDKVVLKNYQEMVVEGCGCR

Tests used:
[1] = tested on: mouse skeletal muscle myotubes; experiment: Immunoblot of mitochondrial proteins after iron chelation of myotubes; format: cell-based
[2] = tested on: human embryonic stem cells (ESCs); experiment: TMT 6-plex isobaric tag quantitation of human embryonic stem cells before and two days after BMP4 treatment (inSeq-triggered QuantMode scans); format: cell-based; conditions: two days post treatment
Experimental: To assess this decision node, a sample comprising three biological replicates of human embryonic stem cells (ESCs) was analyzed pre- and two days-post bone morphogenetic protein 4 (BMP4) treatment (i.e., TMT 6-plex, three pre-treatment and three post BMP4 treatment cell populations). BMP4, a growth factor that induces context-dependent differentiation in pluripotent stem cells, is widely used to study differentiation to biologically relevant cell lineages such as mesoderm and endoderm. […] Here the ratio of change between control and treatment cell lines measured in one QM scan is large (5.86) but not significant (P=0.067, Student's t-test with Storey correction) (34). Note significance testing was accomplished by assessing variation within the three biological replicates of both treatment and control cell lines. The measured ratio remains relatively unchanged (5.22 and 5.43) as reporter tag signal from additional quantitation scans are added; however, the corresponding P-values decrease to 0.014 and 0.012 when two or three quantitation scans are summed. […] Ideally this log2 ratio would be zero, indicating perfect biological replication; however, when only one quantitation scan is employed this ratio severely deviates from zero with decreasing tag intensity. To improve overall data quality and to omit potentially erroneous measurements arbitrary reporter signal cutoffs (dashed vertical line in FIG. 16B) can be employed. These cutoffs eliminate many low-abundance peptides which often represent proteins of interest. Summation of additional quantitation scans increases the average reporter tag intensity, raising nearly all of the protein measurements above the intensity cutoff value (74, 9, and 4 proteins omitted using one, two, and three quantification scans, respectively).
Human embryonic stem cells (line H1) were maintained in feeder independent media as previously described (Chen et al). […]
TMT quantification was performed using TagQuant within COMPASS. […]

Row | Molecule | cell death ([1]; mouse myotube C2C12 cells, 100 μM) | decrease in mitochondrial proteins ([1]; mouse myotube C2C12 cells, 100 μM, 24 hrs) | levels of the mitochondrial voltage dependent anion channel (VDAC) ([1]; mouse skeletal muscle myotubes, FIG. 12) | loss of proteins involved in mitochondrial oxidative phosphorylation (OXPHOS) ([1]; mouse skeletal muscle myotubes, dose-dependent and time-dependent, FIG. 12) | ratio of change between control and treatment cell lines, peptide FCADHPFLFFIR (SEQ ID NO:3) from protein SERPINB8 ([2]; one QM scan, P=0.067) | ratio of change between control and treatment cell lines, peptide FCADHPFLFFIR (SEQ ID NO:3) from protein SERPINB8 ([2]; three quantitation scans summed, P=0.012) | ratio of change between control and treatment cell lines, peptide FCADHPFLFFIR (SEQ ID NO:3) from protein SERPINB8 ([2]; two quantitation scans summed, P=0.014)
1 | CC(=O)N(O)CCCCCNC(=O)CCC(=O)N(O)CCCCCNC(=O)CCC(=O)N(O)CCCCCN [DFO, desferrioxamine] | without causing cell death | marked decrease in mitochondrial proteins | unchanging levels | induces loss of proteins involved in mitochondrial oxidative phosphorylation (OXPHOS) | – | – | –
2 | B1 | – | – | – | – | 5.86 | 5.43 | 5.22
